Assay results as given in patent US20130143929A1, “FUNGICIDAL IMIDAZOLES” (EI DU PONT DE NEMOURS AND COMPANY, priority 2010, published 2013).
Marks after values point to notes of the source that are not given here.

Assays:
Type in all cases: in vivo
[1] = tested on: Septoria tritici (the causal agent of wheat leaf blotch); test: Test B: wheat leaf blotch, preventive spray on wheat seedlings, visual disease rating; conditions: for Test B rating (100 = 100% disease control, 0 = no disease control relative to the controls): wheat leaf blotch, preventive spray on wheat seedlings; for Test B rating (% disease control, wheat leaf blotch): no asterisk: standard test suspension concentration, 100 = 100% disease control, 0 = no control relative to controls
Method in brief: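 Wheat seedlings sprayed to run-off with compound suspension (acetone/water with 250 ppm Trem 014; 200 ppm ≈ 800 g/ha, some at 40 ppm), inoculated next day with Septoria tritici spores. 48 h saturated humidity at 24 °C, then 19 days at 20 °C; visual rating, 100 = full control.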

[2] = tested on: Blumeria graminis f. sp. tritici (also known as Erysiphe graminis f. sp. tritici, the causal agent of wheat powdery mildew); test: Test D: wheat powdery mildew, preventive spray on wheat seedlings, visual disease rating; conditions: for Test D rating (100 = 100% disease control, 0 = no disease control relative to the controls): wheat powdery mildew, preventive spray on wheat seedlings; for Test D rating (% disease control, wheat powdery mildew): no asterisk: standard test suspension concentration, 100 = 100% disease control, 0 = no control relative to controls
Method in brief: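 Compound suspended in acetone/water (50/50) with 250 ppm Trem 014 and sprayed to run-off on wheat seedlings (200 ppm ≈ 800 g/ha), then inoculated next day with spore dust. Disease rated visually after 8 days at 20 °C as % control relative to untreated plants (0-100).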

[3] = tested on: Botrytis cinerea (the causal agent of tomato Botrytis); test: Test C: tomato Botrytis, preventive spray on tomato seedlings, visual disease rating; conditions: for Test C rating (100 = 100% disease control, 0 = no disease control relative to the controls): tomato Botrytis, preventive spray on tomato seedlings; for Test C rating (% disease control, tomato Botrytis): no asterisk: standard test suspension concentration, 100 = 100% disease control, 0 = no control relative to controls
Method in brief: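 Test suspension (acetone/water with 250 ppm Trem 014; 200 ppm equivalent to 800 g/ha) sprayed to run-off on tomato seedlings; B. cinerea spores inoculated next day. After 48 h saturated humidity at 20° C then 3 days at 24° C, disease rated visually as % control relative to untreated controls (0–100).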

[4] = tested on: Puccinia recondite f. sp. tritici (the causal agent of wheat leaf rust); test: Test A: wheat leaf rust, preventive spray on wheat seedlings, visual disease rating; conditions: for Test A rating (100 = 100% disease control, 0 = no disease control relative to the controls): wheat leaf rust, preventive spray on wheat seedlings; for Test A rating (% disease control, wheat leaf rust): no asterisk: standard test suspension concentration, 100 = 100% disease control, 0 = no control relative to controls
Method in brief: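 Wheat seedlings were sprayed to run-off with compound suspended in acetone/water containing 250 ppm Trem 014 (200 ppm ≈ 800 g/ha; some at 40 ppm). Puccinia recondite spores were inoculated the next day. Plants were held 24 h saturated at 20° C, then 7 days at 20° C, and disease control was rated visually on a 0–100 scale against controls.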

[5] = asterisk: 40 ppm test suspension
[6] = no asterisk (standard test suspension concentration, not 40 ppm)

| Compound | Test B rating (100 = 100% disease control, 0 = no disease control relative to the controls) [1, 5] | Test D rating (100 = 100% disease control, 0 = no disease control relative to the controls) [2, 5] | Test C rating (100 = 100% disease control, 0 = no disease control relative to the controls) [3, 5] | Test A rating (100 = 100% disease control, 0 = no disease control relative to the controls) [4, 5] | further results |
| --- | --- | --- | --- | --- | --- |
| Cc1nc(Cl)c(C(O)c2ccc(Cl)cc2F)n1-c1c(F)cccc1F (stereo not drawn) [compound 54] | 100* % | 69* % | 80* % | 98* % |  |
| Cc1nc(Cl)n(-c2c(F)cccc2F)c1C(O)c1c(F)ccc(Br)c1F (racemic) [compound 25] | 100* % | 0* % | 87* % | 99* % |  |
| COc1ccc(C(O)c2c(Cl)ncn2-c2c(F)cccc2F)c(Cl)c1 (racemic) [compound 260] |  |  |  |  | Test B rating (100 = 100% disease control, 0 = no disease control relative to the controls) [1, 6]: 100%; Test D rating (100 = 100% disease control, 0 = no disease control relative to the controls) [2, 6]: 96%; Test C rating (100 = 100% disease control, 0 = no disease control relative to the controls) [3, 6]: 100%; Test A rating (100 = 100% disease control, 0 = no disease control relative to the controls) [4, 6]: 100% |
| Cc1ncc(C(O)c2ccc(C#N)cc2F)n1-c1ccc(F)cc1Br (stereo not drawn) [compound 311] | 5* % | 0* % | 0* % | 9* % |  |
| Cc1nc(Cl)c(C(O)c2c(F)cc(F)cc2F)n1-c1ccc(F)cc1Br (stereo not drawn) [compound 155] |  |  |  |  | Test B rating (100 = 100% disease control, 0 = no disease control relative to the controls) [1, 6]: 100%; Test D rating (100 = 100% disease control, 0 = no disease control relative to the controls) [2, 6]: 0%; Test C rating (100 = 100% disease control, 0 = no disease control relative to the controls) [3, 6]: 99%; Test A rating (100 = 100% disease control, 0 = no disease control relative to the controls) [4, 6]: 100% |
| COc1ccc(C(O)c2c(Br)nc(Cl)n2-c2ccc(F)cc2Cl)c(Cl)c1 (stereo not drawn) [compound 358] | 100* % | 99* % | 100* % | 100* % |  |
| Cc1cc(F)ccc1C(O)c1cnc(C)n1-c1ccc(F)cc1Br (stereo not drawn) [compound 138] |  |  |  |  | Test B rating (100 = 100% disease control, 0 = no disease control relative to the controls) [1, 6]: 28%; Test D rating (100 = 100% disease control, 0 = no disease control relative to the controls) [2, 6]: 0%; Test C rating (100 = 100% disease control, 0 = no disease control relative to the controls) [3, 6]: 0%; Test A rating (100 = 100% disease control, 0 = no disease control relative to the controls) [4, 6]: 89% |
| Cc1nc(Cl)c(C(O)c2ccc(Cl)cc2Cl)n1-c1c(F)cc(Cl)cc1F (stereo not drawn) [compound 114] | 100* % | 0* % | 0* % | 99* % |  |
| Cc1cc(F)ccc1C(O)c1c(Cl)nc(C)n1-c1c(F)cccc1Br (stereo not drawn) [compound 407] |  |  |  |  | Test B rating (% disease control, wheat leaf blotch) [1]: 100%; Test D rating (% disease control, wheat powdery mildew) [2]: 0%; Test C rating (% disease control, tomato Botrytis) [3]: 52%; Test A rating (% disease control, wheat leaf rust) [4]: 99% |
| Cc1nc(Br)c(C(O)c2ccc(Cl)cc2Cl)n1-c1c(F)cccc1Cl (stereo not drawn) [compound 201] | 100* % | 89* % | 99* % | 100* % |  |
| Cc1cc(F)ccc1C(O)c1c(Br)nc(C)n1-c1c(F)cc(Cl)cc1F (stereo not drawn) [compound 110] | 100* % | 0* % | 0* % | 96* % |  |
| Cc1cc(F)ccc1C(O)c1cnc(C)n1-c1c(F)cccc1Br (stereo not drawn) [compound 405] |  |  |  |  | Test B rating (% disease control, wheat leaf blotch) [1]: 94%; Test D rating (% disease control, wheat powdery mildew) [2]: 0%; Test C rating (% disease control, tomato Botrytis) [3]: 9%; Test A rating (% disease control, wheat leaf rust) [4]: 99% |
